Entries after “also recorded” stand apart in the source; their conditions may differ. Where two headings read alike, the source gives them in different places.
How the values were obtained:
[1] = system: annual morningglory (Ipomoea spp.); assay type: in vivo
Excerpt: The effects on herbicidal activity of combinations of SEP 100 (Na azide) with metam Na, Na thiosulfate, methyl disulfide and the herbicide EPTC (Eptam 7E, Eradicane 6.7E) were studied in greenhouse experiments. In a first experiment SEP 100 was applied by drenching (1″ acre water) at 150 lbs a.i./A to pots (4 inch diam; PVC) containing each 2.2 pounds of silt loam (pH 6.2; org. matter <1.0%) from a cotton field. Immediately after treatment each pot was covered with a clear polyethylene bag (1.5 mil). The bags were removed 4 days after, and additional applications were drenched in with: Vapam HL, at 120 gal/A; EPTC at 8 and 10 lbs ai/A; Na thiosulfate at 200 and 300 lbs ai/A; and methyl disulfide at 300 lbs ai/A. Pots were again covered with the bags for 3 days after which they were removed and pots planted with annual morningglory (Ipomoea spp.; 25 seed/pot). Some pots received only SEP 100 and others received water only. Each treatment was represented by 7 pots (experimental units) arranged in a randomized complete block design on a bench. The number of plants in each pot was determined at 10, 13, and 26 days after application of SEP 100. Momingglory plant tops were collected from each pot 33 days after initiation of the experiment and their fresh weight was determined.

[2] = system: Morningglory (Ipomoea spp.); assay type: in vivo
Excerpt: Compounds: Sodium azide, metam sodium (Vapam HL), EPTC, sodium thiosulfate, and methyl disulfide were delivered in aqueous solutions or emulsions (5% of SEP 100 for sodium azide; 5% for Vapam; 0.25% for EPTC, 2.5% for sodium thiosulfate; 2.5% for methyl disulfide) prepared immediately before use by diluting in demineralized water while stirring with a magnetic stirrer.
Sources: SEP 100 from American Pacific Corp., metam sodium as Vapam HL (32, 7% a.i.) from AMVAC, EPTC from Gowen, sodium thiosulfate and methyl disulfide from Aldrich.
Rates: Metam sodium at 163.5 mgs a.i./kg soil-equivalent to 0, and 327 lbs a.i./acre (120 gal Vapam HL/A). Sodium azide at 75 mgs a.i./kg soil equivalent to 150 lbs a.i./A, sodium thiosulfate at 200 and 300 lbs/A; EPTC at 8 and 10 lbs/A, and methyl disulfide at 300 lbs/A.
All different possible combinations of sodium azide with the other deactivating compounds and their corresponding rates were included in the experiment together with the appropriate controls.
Application Method and Procedure: Each treatment was delivered by drenching in 100 mls aqueous volume onto the soil surface in pots (10-cm diam; PVC) containing 1 kg soil. The soil was from a cotton field (silt loam; pH 6.2; CEC<10 meq/100 gm soil; org. matter <1.0%). Sodium azide was applied on day one, and the other compounds four days later. Immediately after treatment the pots were covered by a thick (1.5 mil) clear low density polyethylene bag held tight against the outer wall of the pot by a rubber band. Three days after application of “deactivator compounds” the bags were removed and the pots were planted with morningglory seed (25 seed/pot). Counts were taken from each pot (experimental unit) at 10, 13, and 26 days after application of sodium azide. Morningglory plant tops were collected from each pot 33 days after initiation of the experiment and fresh weights were determined.
Major Pests: Morningglory (Ipomoea spp.)
Experimental Design: Randomized complete block with seven replications/treatment.
Statistical Analyses: Anova and Fischer's least significant difference (flsd) at p 0.05. Regression analyses.

[3] = system: morningglory; experiment: Example 2 greenhouse pot experiment, fixed Vapam HL rate with SEP 100 rates; assay type: in vivo, Ipomoea spp.; details: Vapam HL 60 gal/A on soil treated with SEP 100 40-120 lbs a.i./A
Excerpt: The effects on herbicidal activity of combinations of SEP 100 (Na azide) with metam Na, Na thiosulfate, methyl disulfide and the herbicide EPTC (Eptam 7E, Eradicane 6.7E) were studied in greenhouse experiments. In a first experiment SEP 100 was applied by drenching (1″ acre water) at 150 lbs a.i./A to pots (4 inch diam; PVC) containing each 2.2 pounds of silt loam (pH 6.2; org. matter <1.0%) from a cotton field. Immediately after treatment each pot was covered with a clear polyethylene bag (1.5 mil). […] The number of plants in each pot was determined at 10, 13, and 26 days after application of SEP 100. Momingglory plant tops were collected from each pot 33 days after initiation of the experiment and their fresh weight was determined.
A second experiment explored the interaction between a fixed rate of Vapam HL (60 gal/A) and applications of SEP 100 in the 40-120 lbs a.i./A range. The methods and procedure followed were as for the first experiment except that weed counts were taken at 13 and 17 days after application and plant top weights were determined 32 days after initiation of the experiment.

[4] = system: morningglory
Excerpt: Compounds: sodium azide and metam sodium (Vapam HL) were delivered in aqueous solutions (1.0% of SEP 100 for sodium azide; 5% for Vapam) prepared immediately before use by diluting in demineralized water while stirring with a magnetic stirrer.
Source: SEP 100 from American Pacific Corp., and metam sodium as Vapam HL (32, 7% a.i.) from AMVAC.
Rates: Metam sodium at 0, and 82 mgs a.i./kg soil-equivalent to 0, and 60 gal/A. Sodium azide at 0, 20, 40 and 60 mgs a.i./kg soil equivalent to 0, 40, 80, and 120 lbs a.i./A, respectively. Each metam sodium rate was applied to soil in combination with each sodium azide dose.

[5] = system: warm season turf species; details: cited from earlier work
[6] = applied 4 days after sodium azide 150 lbs a.i./A, metam sodium 327 lbs a.i./acre, sodium thiosulfate 200 and 300 lbs/A, methyl disulfide 300 lbs/A, 10, 13, 26 days

## CCCN(CCC)C(=O)SCC [EPTC, S-ethyl dipropylthiocarbamate]
[1]; EPTC 8 and 10 lbs ai/A, SEP 100 150 lbs a.i./A
  herbicidal activity against morningglory: strongly herbicidal
[2]; EPTC 8 and 10 lbs/A, sodium azide 150 lbs a.i./A
  herbicidal activity against morningglory: strongly herbicidal

## CNC(=S)S [metam sodium, sodium methyl dithiocarbamate]
[3]; 32 days
  effect on morningglory top weights (FIG. 2B): diminished herbicidal activity of sodium azide
[3]; counts at 13 and 17 days
  effect on herbicidal activity of Na azide (number of morningglory plants, FIG. 2A): diminishes the herbicidal activity of sodium azide
[2]; [6]
  effect on herbicidal activity of sodium azide (number of morningglory plants per pot, FIGS. 3A-3C): significantly reduced the herbicidal activity of sodium azide; also recorded: nullified the herbicidal activity of sodium azide
[2]; sodium azide 150 lbs a.i./A, then metam sodium 327 lbs a.i./acre, 33 days
  morningglory growth / top weights (FIG. 3D): synergistic beneficial effects
[4]; metam sodium 60 gal/A on soil previously treated with sodium azide
  effect on morningglory top weights: synergistic beneficial effects
[4]; metam sodium 60 gal/A with sodium azide 0, 40, 80, 120 lbs a.i./A, 13, 17, 30 days
  effect on herbicidal activity of sodium azide (number of morningglory plants per pot, FIGS. 4A-4C): nullified the herbicidal activity of sodium azide

## CSSC [methyl disulfide]
[1]; applied 4 days after SEP 100 150 lbs a.i./A, Vapam HL 120 gal/A, Na thiosulfate 200 and 300 lbs ai/A, methyl disulfide 300 lbs ai/A, counts at 10, 13, 26 days
  effect on herbicidal activity of Na azide (number of morningglory plants, FIG. 1A): little effect
[2]; [6]
  effect on herbicidal activity of sodium azide (number of morningglory plants per pot, FIGS. 3A-3C): inconclusive

## [N-]=[N+]=[N-] [sodium azide]
[5]
  plant back interval required for successful establishment: 3-4 weeks

## O=S([O-])([O-])=S.[Na+].[Na+] [sodium thiosulfate]
[1]; in vivo
  effect on herbicidal activity of Na azide (number of morningglory plants, FIG. 1A): little effect
[2]; in vivo
  effect on herbicidal activity of sodium azide (number of morningglory plants per pot, FIGS. 3A-3C): inconclusive

Source: US20080214398A1, “Herbicidal activities of combinations of sodium azide with sulfur containing and other deactivating compounds” (priority 2005, published 2008)
